# Measurements taken from paper PMC11672137, “High-Affinity Lectin Ligands Enable the Detection of Pathogenic Pseudomonas aeruginosa Biofilms: Implications for Diagnostics and Therapy” (JACS Au, 2024).
# Columns and labels:
# LecA = target: T1, LecA (Pseudomonas aeruginosa, UniProt Q05097); assay: Direct binding assay based on fluorescence polarization, titration with LecA; conditions: read-out: Kd (direct binding, fluorescence polarization); LecA titrated to fluorescent probe, TBS/Ca2+ buffer
# T1 construct: made in house
# T1 sequence (Q05097 whole entry): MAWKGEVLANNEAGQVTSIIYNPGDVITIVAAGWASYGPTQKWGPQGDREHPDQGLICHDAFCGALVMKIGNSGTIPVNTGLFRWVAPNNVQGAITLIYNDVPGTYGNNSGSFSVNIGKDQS
# Experimental: The binding affinities of imaging probes 2–4 for LecA were determined using a direct binding assay based on fluorescence polarization (FP).[47]
# (A, C) Monovalent LecA imaging probes 2–4 based on phenyl β-D-galactoside (1) were titrated with LecA. […] (E) Xyloside-fluorescein conjugate (8) and azido fluorescein (9) served as negative controls in titrations with LecA and LecB, respectively. Averages and standard deviations were determined from at least three independent titrations of technical triplicates each.
# Direct binding affinity determination of LecA and LecB imaging probes was performed with direct titration of protein and imaging probes in TBS/Ca2+ buffer. Protein dilution series was prepared in 96 well plates and 10 µL of each dilution in triplicates were mixed with 10 µL of fluorescent compound (20 nM) in 384-well microtiter plates (Greiner Bio-One, Germany, cat no 781900). The plates were centrifuged (1 min, 500 g), sealed and incubated for 2 h in dark wet chamber under gentle shaking. Fluorescence was measured on a PheraStar FS plate reader (BMG Labtech GmbH, Germany) with excitation filters at 485 nm and emission filters at 535 nm. The data were analysed with MARS Data Analysis Software (BMG Labtech GmbH, Germany) to calculate Kd values.
# [1] = tested on: P. aeruginosa PAO1 biofilms; assay: In vitro biofilm staining under flow conditions, injection method; format: cell-based, Pseudomonas aeruginosa; conditions: 17 μM in channel, 10 min incubation, then flow 3 mL/h for 10-20 min
# Experimental: P. aeruginosa biofilms were grown under flow conditions and observed by fluorescence microscopy in analogy to Ghanbari et al.[66] To this end, P. aeruginosa PAO1 expressing the red fluorescent protein mCherry[56] was diluted to an OD600 nm of 0.1 and injected into the microfluidics device. After a 30-min settling period, biofilms were grown under a constant laminar flow rate of 3 mL/h per channel. Following 48 h of incubation at 30 °C, dense and mature P. aeruginosa PAO1 biofilms were observed, which were then further used for analysis of the imaging probes.
# Two different staining methods were evaluated for the imaging of P. aeruginosa PAO1 biofilms: (I) direct injection of the imaging compounds into the flow system or (II) compound supplementation into the medium and gradual accumulation at the biofilm (Figure S18). […] The flow of compounds 17 and 24 and their arrival in the flow cells were monitored using a fluorescence microscope attached to the flow system. […]
# Figure 4 Staining of P. aeruginosa PAO1 biofilms under flow following the injection method. […] Pictures of the same aggregates were recorded prior to compound injection (t−10), during a 10 min incubation period without flow (t0) and during the wash period (constant flow, 3 mL/h) at different time points t5, t10, t15, and t20 (5, 10, 15, and 20 min) using a fluorescence microscope. […]
smiles,measurement,setting,value
O=C(CCc1ccc(O[C@@H]2O[C@H](CO)[C@H](O)[C@H](O)[C@H]2O)cc1)Nc1ccc(CN(CCc2cn(CCOCCOCCOCCNC(=S)Nc3ccc4c(c3)C(=O)OC43c4ccc(O)cc4Oc4cc(O)ccc43)nn2)Cc2ccc(NC(=O)CCc3ccc(O[C@@H]4O[C@H](CO)[C@H](O)[C@H](O)[C@H]4O)cc3)cc2)cc1 [compound 17],Kd,LecA,1050 ± 120 nM
same,Retention of fluorescence at biofilm during wash,[1],retained at the P. aeruginosa biofilm aggregates
